The test addresses T1, recombinant CETP (rCETP) (Homo sapiens, UniProt P11597).
T1 sequence (P11597 18-493): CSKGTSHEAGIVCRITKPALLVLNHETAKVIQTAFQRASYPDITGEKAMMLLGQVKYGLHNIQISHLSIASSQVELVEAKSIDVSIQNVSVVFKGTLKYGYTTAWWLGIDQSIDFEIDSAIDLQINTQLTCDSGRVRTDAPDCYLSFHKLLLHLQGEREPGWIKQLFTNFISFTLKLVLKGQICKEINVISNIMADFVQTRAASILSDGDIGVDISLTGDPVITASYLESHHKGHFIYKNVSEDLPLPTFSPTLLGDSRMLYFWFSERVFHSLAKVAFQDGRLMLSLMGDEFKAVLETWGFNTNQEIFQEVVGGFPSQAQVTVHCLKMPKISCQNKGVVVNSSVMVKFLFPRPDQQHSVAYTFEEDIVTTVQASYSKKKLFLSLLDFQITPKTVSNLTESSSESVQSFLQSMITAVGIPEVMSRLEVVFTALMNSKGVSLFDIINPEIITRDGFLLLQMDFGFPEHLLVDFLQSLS
The test is described as follows: CETP scintillation proximity assay (transfer of [3H]cholesteryl esters from HDL to biotinylated LDL). The following applies: for IC50: rCETP, 37° C., 4 hours, SPA, read-out: IC50 (inhibition of CETP transfer activity); for activity in the cholesteryl ester transfer protein (CETP) assay: statement in words. The format is biochemical. As for the experimental part: This assay used a commercially available CETP Scintillation Proximity Assay kit (Amersham TRKQ7015). In this assay, the transfer of [^3 H]cholesteryl esters from high density lipoprotein (HDL) to biotinylated low density lipoproteins (LDL) was measured following incubation of donor and acceptor particles in the presence of recombinant CETP (rCETP; see Wang S. et al J. Biol. Chem. (1992) 267:1746-17490 which is herein incorporated by reference). Following incubation, the reaction was terminated and transfer was measured in a single step addition of streptavidin SPA beads, formulated in an assay terminal buffer (Amersham). The rate of increase in signal was proportional to the transfer of [^3 H]cholesteryl ester by CETP.
To 96-well microtiter plates ([…] Microlite) was pipetted 5 μl of sample (or buffer for blank) of appropriate dilution. […] As a control, 5 μl of CETP monoclonal antibody TP-1, 1:10 dilution from ascites was added. The reaction was started by adding 45 μl of the following mixtures to each well.
20 μl of assay buffer (from kit)
10 μl ^3 H]Cholesteryl ester-HDL (from kit)
10 μl of biotinylated LDL (from kit)
The contents of the plate were mixed briefly by tapping the plate gently and then the plate was sealed with parafiim to prevent evaporation during the incubation. The plates were incubated at 37° C. for 4 hours. After incubation the reaction was stopped by adding 200 μl of streptavidin beads to each well. The beads were shaken gently before addition. The mixture was incubated at room temperature for 30 minutes to allow the assay to come to equilibrium with beads. Dpm were counted on a TopCount (Packard Instrument Company, Downers Grove, Ill.) (A conventional scintillation counter with window settings fully open may also be used).

The record followed here is US5446207A, “Anti-dyslipidemic agents” (Harbor Branch Oceanographic Institution, Inc., priority 1993, dated 1995).

The term IC50 denotes the point on the concentration scale where inhibition reaches its midpoint.

Molecules are shown by their SMILES.

Turning to `COc1ccc(O)c(O)c1CC1=C(C)CC[C@H]2C(C)(C)CCC[C@]12C` (relative stereo) [Compound A, wiedendioI-A], the IC50 came out at 2000 nM and the “activity in the cholesteryl ester transfer protein (CETP) assay” value is recorded as “active”.

With `COc1ccc(O)c(O)c1/C=C1\[C@@H](C)CC[C@H]2C(C)(C)CCC[C@]12C` (relative stereo) [Compound B, wiedendioI-B], the IC50 was found to be 2900 nM and the “activity in the cholesteryl ester transfer protein (CETP) assay” value is reported as “active”.
